In paper PMC12018048, “Intranasal kisspeptin administration rapidly stimulates gonadotropin release in humans” (eBioMedicine, 2025):

Tested on: plasma LH
Test: Intranasal kisspeptin-54, plasma LH in adult C57BL/6J male mice
Format: in vivo, mouse
Settings: intranasal, 25 min post administration, N = 2
Protocol: Saline (placebo) or kisspeptin-54 were intranasally administered using a customised and unsharpened 2 mm long and 0.3 mm wide hypodermic needle (BD PrecisionGlide™; 30G; ref. 305106). Male mice were restrained and a single volume of 30 μL of the solution was delivered in one randomly chosen nostril with either 0.9% saline or different concentrations of kisspeptin-54 (1, 3, 12.8, 30, or 50 nM; equivalent to 0.001–0.05 nmol/kg). The protocol involved N = 5 mice per group, except concentrations 12.8 nM where N = 6 and 30 nM where N = 7. […] LH levels were assessed using a tail-tip serial blood sampling as previously reported.[64]^,[65] Briefly, samples containing 4 μL of whole blood were collected every 10 min over a 70-min-long period from each animal. The first sampling point was taken as baseline LH level (−5 min), and saline or kisspeptin-54 were administered at timepoint 0 min. Whole blood was collected into Eppendorf tubes pre-loaded with 50 μL of 0.1 M phosphate-buffered saline (PBS)-0.05% Tween, thoroughly mixed, and snap-frozen with dry ice and stored at −80 °C.
LH levels were measured using an established in-house and ultrasensitive mouse LH ELISA method as previously validated.[66] A primary coating antibody (bovine LHβ subunit, 518B7; L. Sibley; University of California, UC Davis, RRID AB_2756886) was used at a 1:1000 dilution in combination with a detection primary antibody (rabbit LH antiserum, AFP240580Rb, RRID AB_2665533; NIDDK- NHPP) used at 1:10,000 dilution, and a secondary horseradish peroxidase-conjugated antibody (goat anti-rabbit; Vector Laboratories, PI-1000, RRID AB_2336198) used at 1:10,000 dilution. The assay standard curve used a mouse LH-RP (AFP5306A, A. F. Parlow, National Hormone and Peptide Program; supplied by Golden West BioSolutions, California, USA; catalogue # TLIA1053.03). The assay sensitivity of this LH ELISA was 0.04 ng/mL, intra-assay coefficient of variation 4.1%, and inter-assay coefficient of variation 7.3%.
Statistical analyses were performed using GraphPad Prism (version 9.4.1). Data are presented as mean ± SEM. Normality of the data was determined using the Shapiro–Wilk test. The analysis considered increment in LH levels when average post-administration values were above significance (P < 0.05) compared to basal levels (−5 min) using repeated measures two-way ANOVA with Fishers least significant difference (LSD) test. Integrated LH response to kisspeptin-54 administration as indicated using the area under the curve (AUC) analysis when all peaks were above baseline values. The difference in AUC between groups was compared by one-way ANOVA with Fisher’s LSD test. In all cases, P < 0.05 was considered statistically significant.

For “Dye-C-GTSLSPPPESSGSRQQPGLSAPHSRQIPAPQGAVLVQREKDLPNYNWNSFGLRF [kisspeptin-54-D2, Kisspeptin-54 labelled with a D2 fluorescent probe, developed by Cisbio Bioassays]”, the “Plasma LH response to the fluorescently tagged peptide” value was “robust LH increase”.
